According to US8314150B2, “Kinase protein binding inhibitors” (priority 2008, dated 2012):

Experiment: Tolerability in nude mice in tumor growth inhibition experiments
Assay type: in vivo
Method: Cell Viability Assay—The Cells were treated with peptides for 24 hours at different peptide concentrations. The 3-(4,5-dimethylthiazol-2-yl)-5-(3-carboxymethoxyphenyl)-2-(4-sulfophenyl)-2H-tetrazolium compound from Promega Viability kit (Madison, Ill.) was added, and the cells were incubated at 37° C. for 1-2 hours. The optical density on 96-plate was analyzed with a microplate reader at 490 nm to determine cell viability. In addition, cells were stained with trypan blue after 24 hours of treatment with Y15 and the percent of cells that stained positive were determined with a hemacytometer. […] Then 2% SDS was added to the dried plated and OD at 590 nm was measured for detecting cell adhesion. […] Protein concentrations were determined using a Bio-Rad Kit. The boiled samples were loaded on Ready SDS-10% PAGE gels (Bio Rad, Inc) and used for Western blot analysis with the protein-specific antibody. […] Detachment Assay—Cells were plated with and without inhibitors for 24 hours, and detached and attached cells were counted in a hemocytometer. We calculated the percent of detachment by dividing the number of detached cells by the total number of cells. The percent of detached cells was calculated in three independent experiments. […] For each experiment 300 cells per treatment were counted. […]

SMILES: Cl.Cl.Cl.Cl.Nc1cc(N)c(N)cc1N [Y15, 1,2,4,5-benzenetetraamine tetrahydrochloride]
- optimal non-toxic dose (IP, nude mice): 30 mg/kg
- animal weight loss or death (intraperitoneal 30 mg/kg, 5 days/week, 36 days): No animal weight loss or death was observed
